The results in this text go back to US7264947B2, “Activity dependent neurotrophic factor III (ADNF III)” (United States of America, as represented by the Secretary …, priority 1997, dated 2007).

“Also recorded” adds a separate entry of the source.

One assay relates to ApoE-deficient mice. Briefly: developmental milestones (placing response, cliff avoidance) in ApoE-deficient mice. Format: in vivo. The source says:
Animals (15-37 per experimental group, 5-8 per litter) were submitted to placing response assays daily following injection of: 1. saline (open circles, C57B6 mice=control, n=37, closed circles, ApoE deficient=ApoE, n=22). Experiments were repeated three times. Score indicates: 0=no reaction, 1=time to acquire a response shorter than 15 seconds; 2=time to acquire a response shorter than 10 seconds; 3=time to acquire a response shorter than 5 seconds. Age (days) indicate: the age of the tested animals in days. Results are mean±SEM.
ApoE knockout mice and normal controls were a gift from the late Prof. Shlomo Eisenberg of Tel Aviv University, originally provided by Dr. J. L. Breslow (Plump et al., Cell 71:343-353 (1992)). The ApoE knockout mice were obtained from embryonic stem cells OLA 129 in C57B6×FVB mice (as described). Age-matched controls were inbred C57B6 mice. Groups of mouse pups were treated from birth until the age of 14 days. Daily subcutaneous injections included: […] saline (days 1 through 4), […] saline (days 5 through 10) and […] saline (days 11-14).
Developmental milestones were measured using at least three dams with […] each for every experimental point. All observations were made between 12 noon and 4 pm. From day one through day six, mice were weighed and tested 60 min. after the daily injection. Placing is a behavioral parameter that is measured as the time elapsing between contact of the foot against the edge of an object and its placing on the top of the same object.
Further measurements in the Apo-E-deficient mouse included assessments of the time of onset of developmental milestones of behavior. […] A significant difference was observed among the treatment groups on the first day of testing (P<0.0001), with inbred C57B6 mice developing faster than the ApoE-deficient animals. […] NAP-treated animals were the fastest.

The next assay deals with ADNF III mRNA. Briefly: northern blot of ADNF III mRNA in brain of ApoE-deficient mice. Format: in vivo. The conditions noted are these: 28-day-old ApoE-deficient mice, daily injections for the first two weeks of life. On the procedure:
FIG. 9 illustrates northern blot identification of ADNF III mRNA. RNA was extracted from the brains of 28-day-old apolipoprotein E-deficient mice (E) treated with saline for the first two weeks of life or with NAP (E+N), control mice (C) were treated with saline. RNA was subjected to northern blot hybridization with a PCR-labeled ADNF III specific probe (α-^32P-dCTP, Amersham, 3000 Ci/mmol) (see FIG. 2) in comparison to an actin-specific probe (Gozes et al., Mol. Brain Res. 2:137-148 (1987)).
b. Hybridization: The blots were prehybridized for two hours at 55° C. and were hybridized with a specific complementary DNA probe for the mouse ADNF III cDNA (a PCR product obtained using the following primers: 61-79 and the complementary strand from position 438-455, which are described in detail below). The labeled probe was prepared by random priming and incubated with the blot for 16 hours at 55° C. Prehybridization and hybridization solutions (12 ml/blot) contained the following: 50% formamide (deionized using mixed bed resin, Sigma), 50 mM sodium phosphate buffer (pH 6.5), 0.8 M NaCl, 1 mM EDTA, 5× Denhart's reagent (0.05% BSA, 0.05% polyvinylpyrrolidone and 0.05% Ficoll), 0.1% SDS and […] poly(A). The labeled probe was dissolved in 12 ml of hybridization solution and added to the prehybridization mixture. […]

Take Asn-Ala-Pro-Val-Ser-Ile-Pro-Gln [NAP]: the “placing response from the second postnatal day onwards” value with ApoE-deficient mice (P<0.0001) was “best performers”. Further, the “acquisition of the placing response and the cliff avoidance response” value in the assay with ApoE-deficient mice (daily injection) is “showed acceleration”. Further, in the assay on ApoE-deficient mice (tested 60 min. after injection), the “marked improvement of placing response at the first day of treatment” value is listed as “marked improvement; also recorded: the fastest”. The “ADNP mRNA content” value with ADNF III mRNA is “did not change”.
